{"source": "patent EP4389746A2", "about": "“P2X3 RECEPTOR ANTAGONISTS” (Recordati Industria Chimica E Farmaceutica SPA, priority 2022, dated 2024)", "test_system": "Sprague-Dawley Rats", "assay": "Two bottle taste test in rats: dysgeusia effect of P2X3 antagonists", "type": "in vivo", "conditions": "rats water fasted overnight; bottles presented 30 minutes after treatment for 15 minutes (Fig. 4)", "procedure": "C57BL/6J mice, Hartley Guinea pigs and Sprague-Dawley Rats from Charles River Italy were used in the experiments. Animals were housed with free access to food and water and maintained on a forced 12 hr light-dark cycle at 22-24°C for at least one week before the experiments were carried out. The animals were handled according to internationally accepted principles for care of laboratory animals (Directive 2010/63/EU of the European Parliament and of the Council of 22 September 2010).\n(Fig 3) \"Two bottle taste test\" in rats - Dysgeusia effect of P2X3 antagonists\nRats were water fasted overnight. The day of the experiment the animals were treated with tested compounds and 30 minutes later two bottles were presented for 15 minutes, the first one containing water and the second bottle containing Quinine, a substance showing a bitter taste. The volume of liquid drunk in 15 minutes from each bottle was recorded and expressed as percentage of preference (Fig.4). Statistical analysis was performed on absolute values (mean ± SEM) using one-way ANOVA and Tukey's test for multiple comparisons.", "data": [{"smiles": "COc1cc(C(C)C)c(Oc2cnc(N)nc2N)cc1S(N)(=O)=O", "note": "[Gefapixant, reference compound]", "values": [{"measurement": "preference between water and Quinine", "result": "showed altered taste function and poor preference between water and Quinine bottles"}]}]}
